Measurements taken from patent US12427134B2, “Methods of reducing the risk of cardiovascular events in a subject with atrial fibrillation and/or atrial flutter” (priority 2019, dated 2025).

System: hypertriglyceridemic patients with cardiovascular disease or at high risk for cardiovascular disease
Experiment: REDUCE-IT: clinical laboratory evaluation (hematology, liver function tests, clinical chemistry, drug-induced liver injury)
Format: in vivo, human
Description: Clinical Laboratory Procedures and Evaluations: All clinical laboratory determinations for screening and safety were performed by a certified clinical laboratory under the supervision of the Sponsor or its designee. Whenever possible and appropriate, samples for the clinical laboratory procedures were collected after fasting for at least 10 hours. For the purposes of this study, fasting was defined as nothing by mouth except water (and any essential medications). The investigator reviewed and signed all laboratory test reports. At screening, patients who had laboratory values that are outside the exclusionary limits specified in the exclusion criteria were not enrolled in the study (patients would have been considered for the study if values were classified as not clinically significant by the investigator). After randomization, the investigator was notified if laboratory values were outside of their normal range. In this case, the investigator was required to conduct clinically appropriate follow-up procedures.
Safety Laboratory Tests: The safety parameters were analyzed by a certified clinical laboratory at screening (Visit 1 or Visit 1.1), Randomization visit (Visit 2; Day 0), Visit 3 (Day 120; −4 Months) and all other follow-up visits including the Last Visit. The safety laboratory tests included: • Hematology with complete blood count (CBC), including RBC, hemoglobin (Hgb), hematocrit (Hct), white cell blood count (WBC), white cell differential, and platelet count; and • Biochemistry panel including total protein, albumin, alkaline phosphatase, alanine am inotransferase (ALT/SGPT), aspartate am inotransferase (AST/SGOT), total bilirubin, glucose, calcium, electrolytes (sodium, potassium, chloride), blood urea nitrogen (BUN), serum creatinine, uric acid, creatine kinase, and HbA1c.
Each laboratory result was classified as low (L), normal (N), and high (H) at each visit according to the laboratory-supplied normal range. The shift from baseline was presented for each post-baseline visit and overall post-baseline visits. If multiple measurements for a test parameter were available for a post-baseline patient-visit, the most extreme value was included in the shift table. For shift from baseline to overall post-baseline visits, values from all visits (including unscheduled measurements) were included. The chemistry shift table included fasting lipid parameters. The continuous lipid values were presented as part of the efficacy analysis.
A treatment-emergent PCS high value at any time was defined as a change from a value less than or equal to the upper reference limit at baseline to a PCS high value at any post-baseline measurement. A treatment-emergent PCS low value at any time was defined as a change from a value greater than or equal to the lower reference limit at baseline to a PCS low value at any post-baseline measurement. Number (%) of patients with any post-baseline PCS laboratory values was summarized by treatment group. A listing of patients with PCS laboratory values at any time, i.e., baseline or at any post-baseline visit, were included.
DILI cases were investigated through the following analyses: • A graph of distribution of peak values of alanine aminotransferase (ALT) versus peak values of total bilirubin (TBL) during the treatment period was prepared, using a logarithmic scale. In the graph, for each patient, the peak TBL times the Upper Limit of Normal (ULN) were plotted against the peak ALT times the ULN, where the peak TBL and peak ALT may or may not have happened on the same day of liver testing. The graph was divided into 4 quadrants with a vertical line corresponding to 3×ULN for ALT and a horizontal line corresponding to 2×ULN for TBL. […]

[1] = Baseline (Visit 2), Safety population
[2] = Visit 9 (n = 8), Safety population
[3] = Visit 9 (only 8 patients had data)
[4] = any post-baseline visit, 3975 patients with data
[5] = any post-baseline visit, 3977 patients with data

CC/C=C\C/C=C\C/C=C\C/C=C\C/C=C\CCCC(=O)OCC [AMR101, eicosapentaenoic acid ethyl ester]
ALT, mean baseline value [1]: 27.72 U/L
AST, mean baseline value [1]: 24.47 U/L
Hemoglobin, mean baseline value [1]: 141.16 g/L
Platelet Count, mean baseline value [1]: 2.4301e+11 L⁻¹
ALT, mean change from baseline (Last Visit, Safety population): −2.33 U/L
AST, mean change from baseline (Last Visit, Safety population): −1.25 U/L
Hemoglobin, mean change from baseline (Last Visit, Safety population): -1.12 g/L
Platelet Count, mean change from baseline (Last Visit, Safety population): -5.52e+09 L⁻¹
Increase of 3×ULN in ALT or AST and increase of 2×ULN in total bilirubin, patients (Safety population): one patient
Increase of 3×ULN in ALT or AST, increase of 2×ULN in total bilirubin, and alkaline phosphatase ≤2×ULN, patients (Safety population): one patient
Individual study drug-related hematology and clinical chemistry TEAEs, incidence (Safety population): < 0.2%
Patients with basophils PCS high >1% (Safety population): 47.0%
Patients with treatment-emergent total bilirubin >ULN (Safety population): 7.5%
TEAE blood glucose increased, patients (Safety population): 2.6%
TEAE hyperglycemia, patients (Safety population): 1.7%
TEAE hypoglycemia, patients (Safety population): 1.5%
ALT, mean change from baseline (Visit 3, Safety population): 0.39 U/L
AST, mean change from baseline (Visit 3, Safety population): 0.24 U/L
Hemoglobin, mean change from baseline (Visit 3, Safety population): 0.17 g/L
Platelet Count, mean change from baseline (Visit 3, Safety population): -2.36e+09 L⁻¹
ALT, mean change from baseline (Visit 4, Safety population): −0.28 U/L
AST, mean change from baseline (Visit 4, Safety population): 0.03 U/L
Hemoglobin, mean change from baseline (Visit 4, Safety population): 0.85 g/L
Platelet Count, mean change from baseline (Visit 4, Safety population): -4.85e+09 L⁻¹
ALT, mean change from baseline (Visit 5, Safety population): −1.27 U/L
AST, mean change from baseline (Visit 5, Safety population): −0.83 U/L
Hemoglobin, mean change from baseline (Visit 5, Safety population): 1.39 g/L
Platelet Count, mean change from baseline (Visit 5, Safety population): -1.05e+10 L⁻¹
ALT, mean change from baseline (Visit 6, Safety population): −1.66 U/L
AST, mean change from baseline (Visit 6, Safety population): −1.10 U/L
Hemoglobin, mean change from baseline (Visit 6, Safety population): 0.92 g/L
Platelet Count, mean change from baseline (Visit 6, Safety population): -1.368e+10 L⁻¹
ALT, mean change from baseline (Visit 7, Safety population): −2.80 U/L
AST, mean change from baseline (Visit 7, Safety population): −1.56 U/L
Hemoglobin, mean change from baseline (Visit 7, Safety population): 0.64 g/L
Platelet Count, mean change from baseline (Visit 7, Safety population): -1.73e+10 L⁻¹
Platelet count, greatest mean decrease from baseline excluding Visit 9 (Visit 8): 1.85e+10 L⁻¹
ALT, mean change from baseline (Visit 8, Safety population): −3.42 U/L
AST, mean change from baseline (Visit 8, Safety population): −1.66 U/L
Hemoglobin, mean change from baseline (Visit 8, Safety population): -0.33 g/L
Platelet Count, mean change from baseline (Visit 8, Safety population): -1.854e+10 L⁻¹
ALT, mean change from baseline [2]: −1.25 U/L
AST, mean change from baseline [2]: 0.25 U/L
Hemoglobin, mean change from baseline [2]: -4.13 g/L
Platelet Count, mean change from baseline [2]: -3.288e+10 L⁻¹
Hemoglobin, greatest mean change from baseline [3]: -4.1 g/L
Platelet count, greatest mean decrease from baseline [3]: 3.29e+10 L⁻¹
ALT or AST >3 × ULN and Total Bilirubin >2 × ULN, % patients [4]: (0.0) %
ALT or AST >3 × ULN and Total Bilirubin >2 × ULN, n patients [4]: 1
ALT or AST >3 × ULN, % patients [4]: (1.5) %
ALT or AST >3 × ULN, Total Bilirubin >2 × ULN, and ALP ≤2 × ULN, % patients [4]: (0.0) %
ALT or AST >3 × ULN, Total Bilirubin >2 × ULN, and ALP ≤2 × ULN, n patients [4]: 1
ALT or AST >3 × ULN, n patients [4]: 61
PCS High >3 × ULN (AST) and >2 × ULN (Total Bilirubin), % patients [4]: (0.0) %
PCS High >3 × ULN (AST) and >2 × ULN (Total Bilirubin), n patients [4]: 1
Treatment-emergent AST >3 × ULN, % patients [4]: (0.9) %
Treatment-emergent AST >3 × ULN, n patients [4]: 36
Treatment-emergent AST >ULN, % patients [4]: (23.4) %
Treatment-emergent AST >ULN, n patients [4]: 932
PCS High >3 × ULN (ALT) and >2 × ULN (Total Bilirubin), % patients [5]: (0.0) %
PCS High >3 × ULN (ALT) and >2 × ULN (Total Bilirubin), n patients [5]: 1
Treatment-emergent ALP >2 × ULN, % patients [5]: (0.5) %
Treatment-emergent ALP >2 × ULN, n patients [5]: 18
Treatment-emergent ALP >ULN, % patients [5]: (7.7) %
Treatment-emergent ALP >ULN, n patients [5]: 308
Treatment-emergent ALT >3 × ULN, % patients [5]: (1.1) %
Treatment-emergent ALT >3 × ULN, n patients [5]: 44
Treatment-emergent ALT >ULN, % patients [5]: (32.9) %
Treatment-emergent ALT >ULN, n patients [5]: 1308
Treatment-emergent Total Bilirubin >2 × ULN, % patients [5]: (0.5) %
Treatment-emergent Total Bilirubin >2 × ULN, n patients [5]: 21
Treatment-emergent Total Bilirubin >ULN, % patients [5]: (7.5) %
Treatment-emergent Total Bilirubin >ULN, n patients [5]: 297
Hemoglobin, greatest mean change from baseline excluding Visit 9 (final visit): -1.1 g/L
